Experiments:
HBV = assay: Inhibition of HBV proliferation in HBV producing cell line HepG 2.2.15 (competitive PCR of culture supernatant); format: cell-based, Hepatitis B virus; conditions: HepG 2.2.15, one week; for inhibition at 0.01 µg/mL / inhibition at 0.1 µg/mL / inhibition at 1 µg/mL: Hepatitis B virus, HepG2.2.15, 168 h, read-out: Inhibitory effect on the HBV proliferation, Inhibition activity on HBV-RT (%)
Description: The following experiment was performed to determine inhibitory effects of compounds of formula on the proliferation of HBV producing cell line.
To test for antiviral effect, replication and proliferation of HBV were measured in HepG 2.2.15, a human liver cancer cell line.
The cell concentration was adjusted to 1×10^5 cells/ml and 1 ml was added to each well of a 24-well cell culture plate, which was then kept in a culture box for 3-4 days at 37° C. under 5% CO2 until cells grew sufficiently, changing culture medium everyday. When the cells matured sufficiently, the test compounds were added to the final concentrations of 0.01, 0.1, and 1 μg/ml. One week after the addition of test compounds, he culture solution was centrifuged at 5,000 rpm for 10 min. 25 μl of supernatant was transferred to a new tube and 5 μl of lysis solution [0.54N NaOH, 0.06% NP40] was added to each tube. After keeping the tube at 37° C. for 1 hr, 30 μl . of neutralizing solution [0.09NHCl, 0.1MTris-HCl, pH7.4] was added as a reaction solution for competitive polymerase chain reaction (PCR).
PCR was performed using genetic sequence of HBV core protein as a matrix. PCR reaction was carried out by adding 1 unit of Taq polymerase enzyme to 25 pmol of each primer, 250 μM dNTP, 5 μl of PCR reaction solution [0.54N NaOH, 0.06% NP40, 0.09N HCl, 0.1M Tris-HCl, pH 7.4].
DNA polymerized by PCR was electrophoresed on Agarose gel and quantitatively analyzed using an image analyzer (Gel Dcc 1000, Bio-Rad) in order to evaluate the effect of compounds of the present invention on the reduction of HBV proliferation.
3TC (lamivudine) was used as a positive control at the same concentrations as those of the test compounds. The percentage of reduction in HBV proliferation was calculated using the group without test compound as a control and the results are represented in Table 4.

HBV polymerase = target: T1, HBV polymerase (Hepatitis B virus genotype A2 subtype adw2, UniProt P03159); assay: In vitro reverse transcription activity of HBV polymerase (ELISA-type, DIG/biotin nucleotides); format: biochemical; conditions: for inhibition at 0.01 µg/mL / inhibition at 0.1 µg/mL / inhibition at 1 µg/mL: read-out: Inhibition activity on HBV-RT (%)
T1 construct: made in house; host or cells: E. coli
T1 sequence (P03159 whole entry): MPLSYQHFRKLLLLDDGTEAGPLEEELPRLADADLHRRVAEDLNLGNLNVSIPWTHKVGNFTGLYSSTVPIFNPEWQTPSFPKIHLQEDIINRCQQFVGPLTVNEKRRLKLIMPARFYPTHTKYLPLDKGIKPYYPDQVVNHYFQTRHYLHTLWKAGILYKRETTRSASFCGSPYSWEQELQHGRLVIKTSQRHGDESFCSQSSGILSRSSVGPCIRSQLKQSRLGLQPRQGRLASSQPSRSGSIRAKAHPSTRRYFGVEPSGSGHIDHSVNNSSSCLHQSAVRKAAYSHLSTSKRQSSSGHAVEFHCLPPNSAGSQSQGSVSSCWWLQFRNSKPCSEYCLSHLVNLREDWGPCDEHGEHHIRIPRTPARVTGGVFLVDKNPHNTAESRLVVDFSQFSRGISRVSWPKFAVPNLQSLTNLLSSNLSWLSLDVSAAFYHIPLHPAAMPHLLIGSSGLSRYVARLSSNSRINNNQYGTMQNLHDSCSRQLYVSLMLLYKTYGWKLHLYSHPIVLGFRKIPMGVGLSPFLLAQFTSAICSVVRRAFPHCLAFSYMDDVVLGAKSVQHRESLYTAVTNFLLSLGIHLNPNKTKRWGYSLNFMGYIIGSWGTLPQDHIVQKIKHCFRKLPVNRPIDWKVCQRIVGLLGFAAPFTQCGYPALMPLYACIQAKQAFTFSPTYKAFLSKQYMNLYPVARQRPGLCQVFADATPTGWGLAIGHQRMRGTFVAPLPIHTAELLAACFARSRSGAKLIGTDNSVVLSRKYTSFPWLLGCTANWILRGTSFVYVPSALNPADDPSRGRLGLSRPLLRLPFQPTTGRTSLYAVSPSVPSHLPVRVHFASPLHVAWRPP
Description: The following in vitro experiment was performed to determine the effect of the compounds of formula 1 on the activity of HBV polymerase during reverse transcription.
The present inventors submitted application for a patent concerning HBV polymerase genetically expressed in and separated from E. coli, the process of its preparation, and the method to measure the enzyme activities (KR 94-3918, KR 96-33998). In the present experiments HBV polymerase was used which had been expressed in E. coli as stated above.
The method used in the present invention to measure in vitro reverse transcribing activities of HBV polymerase is as follows. Basic principles are the same as for ELISA. Nucleotides with biotin or digoxigenin group attached are included as substrates and anti-DIG antibodies attached to peroxidase enzyme recognize the polymerized substrates.
To the wells coated with streptavidin, 20 μl of HBV polymerase, 20 μl of reaction mixture (10 μM each of DIG-UTP and Biotin-UTP, 46 mM Tris-HCl, 266 mM KCl, 27.5 mM MgCl2, 9.2 mM DTT substrate/primer hybrid), and 20 μl of test compound (added to 1, 0.1, and 0.01 μg/ml) were added and allowed to react a 22° C. for 15 hrs. During this reaction, HBV polymerase catalyzes DNA synthesis and digoxigenin and biotin attached to nucleotides form bonds with streptavidin coated on the bottom of wells. When the reaction was done, each well was washed with 250μl of cleaning buffer (pH 7.0) for 30 seconds, which was repeated five times to remove remaining impurities. 200 μl of anti-DIG-POD antibody was added to each well and allowed to react for 1 hr at 37° C., and the wells were washed with cleaning buffer to remove impurities. 200μl each of ABTS™, a substrate of peroxidase, was then added and allowed to react at room temperature for 30 min. Absorbance was measured at 405 nm using ELISA reader.
The percentage of reduction in HBV polymerase activities for reverse transcription was calculated using the group without test compound as a control and the results are shown in Table 3.

[1] = target: T2, HIV reverse transcriptase (Human immunodeficiency virus type 1 group M subtype B, UniProt P04585); assay: In vitro HIV reverse transcriptase activity (non-radioactive reverse transcriptase assay kit); format: biochemical
T2 construct: activities of HIV reverse transcriptase; purchased Boehringer Mannheim
Description: The following in vitro experiments were done to determine the effect of compounds of formula 1 on the reduction of HIV enzyme activities in reverse transcription.
Non-radioactive reverse transcriptase assay kit (Boehringer Mannheim) was used in the measurement of in vitro transcriptase activities. 20 μl (40 ng) of HIV transcriptase and 20 μl of reaction mixture containing matrix-primer hybrid poly (A) oligo (dT) 15, DIG(digoxigenin)-dUTP, biotin-dUTP, and TTP were added to wells coated with streptavidin. Test compounds were also added at the final concentrations of 0.1 and 1 μg/ml and allowed to react at 37° C. for 1 hr. At this time, DNA is formed from RNA by the action of HIV transcriptase, forming bonds with streptavidin coated on the bottom of wells because of digoxigenin and biotin moieties attached to nucleotides.
When the reaction was completed, each well was washed with 250 μl. of cleaning buffer (pH 7.0) for 30 sec. five times to remove remaining impurities. 200 μl of anti-DIG-POD […] was added to each well, allowed to react at 37° C. for 1 hr and washed as above to remove impurities. 200 μl of ABTS™, a substrate for peroxidase, was added to each well and allowed to react at room temperature for 30min. Absorbance at 405 nm was then read for each solution using ELISA reader and used for quantitative determination of inhibitory effect on the HIV transcriptase activities. The percentage of reduction in the activities of HIV reverse transcriptase was calculated using the group without test compound as control and the results are represented in Table 5.

Structure (SMILES) | inhibition at 0.01 µg/mL (HBV; 0.01 μg/ml) | inhibition at 0.1 µg/mL (HBV; 0.1 μg/ml) | inhibition at 1 µg/mL (HBV; 1 μg/ml) | inhibition at 0.01 µg/mL (HBV polymerase; 0.01 μg/ml test compound) | inhibition at 0.1 µg/mL (HBV polymerase; 0.1 μg/ml test compound) | inhibition at 1 µg/mL (HBV polymerase; 1 μg/ml test compound) | Inhibitory effect on the activities of HIV reverse transcriptase, Inhibition activity on HBV-RT (%) ([1]; 0.1 μg/ml test compound) | other results
CSc1ncc(C(N)=O)c(Nc2ccc3cn[nH]c3c2)n1 [Example 2, 4-(1H-6-Indazolylamino)-2-methylthio-5-pyrimidinecarboxamide] | 20% | 40% | 70% | 36% | 55% | 85% |  | 
CSc1ncc(C(=O)NCCCn2ccnc2)c(Nc2ccc3cn[nH]c3c2)n1 [Example 30, N-[3-(1H-1-imidazolyl)propyl]-4-(1H-6-indazolylamino)-2-methylthio-5-pyrimidinecarboxamide] |  |  |  | 32% | 58% | 91% |  | melting point: 230 to 232 °C
CSc1ncc(C(=O)NN2CCOCC2)c(Nc2ccc3[nH]ncc3c2)n1 (hydrate or solvate) [Example 35, 4-(1H-5-indazolylamino)-2-methylthio-N-(4-morpholinyl)-5-pyrimidinecarboxamide] |  |  |  |  |  |  |  | melting point: 239 to 242 °C
CC[C@H](CO)NC(=O)c1cnc(SC)nc1Nc1ccc2[nH]ncc2c1 [Example 11] |  |  |  |  |  |  |  | Inhibition activity on HBV-RT (%) (HBV polymerase; 0.01 μg/ml test compound): 44%; Inhibition activity on HBV-RT (%) (HBV polymerase; 0.1 μg/ml test compound): 59%; Inhibition activity on HBV-RT (%) (HBV polymerase; 1 μg/ml test compound): 82%
CSc1ncc(C(=O)N(C)CCO)c(Nc2ccc3[nH]ncc3c2)n1 [Example 9, N-hydroxyethyl-N-methyl-4-(1H-5-indazolylamino)-2-methylthio-5-pyrimidine Carboxamide] | 20% | 48% | 65% | 30% | 54% | 75% | 52% | Inhibition of HIV reverse transcriptase activity ([1]; 1 μg/ml test compound): 84%
CSc1ncc(C(N)=O)c(Nc2ccc3[nH]ncc3c2)n1 [Example 1, 4-(1H-5-Indazolylamino)-2-methyl thio-5-pyrimidinecarboxamide] |  |  |  |  |  |  | 44% | Inhibitory effect on the HBV proliferation, Inhibition activity on HBV-RT (%) (HBV; 0.01 μg/ml): 25%; Inhibitory effect on the HBV proliferation, Inhibition activity on HBV-RT (%) (HBV; 0.1 μg/ml): 53%; Inhibitory effect on the HBV proliferation, Inhibition activity on HBV-RT (%) (HBV; 1 μg/ml): 82%; Inhibition activity on HBV-RT (%) (HBV polymerase; 0.01 μg/ml test compound): 40%; Inhibition activity on HBV-RT (%) (HBV polymerase; 0.1 μg/ml test compound): 63%; Inhibition activity on HBV-RT (%) (HBV polymerase; 1 μg/ml test compound): 90%; Inhibitory effect on the activities of HIV reverse transcriptase, Inhibition activity on HBV-RT (%) ([1]; 1 μg/ml test compound): 65%
Nc1ccn([C@@H]2CS[C@H](CO)O2)c(=O)n1 [Example 3TC, lamivudine, reference compound] | 48% | 80% | 99% |  |  |  |  | 
CSc1ncc(C(=O)NCCO)c(Nc2ccc3[nH]ncc3c2)n1 [Example 7, N-(2-Hydroxyethyl)-4-(1H-5-indazolylamino)-2-methylthio-5-pyrimidinecarboxamide] | 21% | 61% | 92% | 48% | 76% | 93% |  | 
CCNC(=O)c1cnc(SC)nc1Nc1ccc2[nH]ncc2c1 [Example 5, N-ethyl-4-(1H-5-Indazolylamino)-2-methylthio-5-pyrimidinecarboxamide] |  |  |  | 20% | 52% | 70% | 57% | Inhibition of HIV reverse transcriptase activity ([1]; 1 μg/ml test compound): 80%
CSc1ncc(C(=O)N(C)CCO)c(Nc2ccc3cn[nH]c3c2)n1 [Example 10, N-hydroxyethyl-N-methyl-4-(1H-6-indazolylamino)-2-methylthio-5-pyrimidinecarboxamide] |  |  |  | 22% | 48% | 70% | 47% | Inhibition of HIV reverse transcriptase activity ([1]; 1 μg/ml test compound): 80%
CSc1ncc(C(=O)NC2CC2)c(Nc2ccc3cn[nH]c3c2)n1 [Example 6, N-cyclopropyl-4-(1H-6-Indazolylamino)-2-methylthio-5-pyrimidinecarboxamide] |  |  |  | 24% | 43% | 74% | 54% | Inhibition of HIV reverse transcriptase activity ([1]; 1 μg/ml test compound): 78%
COCCNC(=O)c1cnc(SC)nc1Nc1ccc2[nH]ncc2c1 [Example 13, 4-(1H-5-indazolylamino)-N-(2-methoxyethyl)-2-methylthio-5-pyrimidinecarboxamide] |  |  |  | 13% | 40% | 58% |  | 
CSc1ncc(C(=O)NN2CCOCC2)c(Nc2ccc3[nH]ncc3c2)n1 [Example 35, 4-(1H-5-indazolylamino)-2-methylthio-N-(4-morpholinyl)-5-pyrimidinecarboxamide] | 29% | 50% | 86% | 46% | 61% | 90% |  | 
CC[C@H](CO)NC(=O)c1cnc(SC)nc1Nc1ccc2cn[nH]c2c1 [Example 12, N-[(1R)-1-(hydroxymethyl)propyl]-4-(1H-6-indazolylamino)-2-methylthio-5-pyrimidinecarboxamide] |  |  |  | 36% | 55% | 85% |  | 
CSc1ncc(C(=O)NCCN2CCOCC2)c(Nc2ccc3cn[nH]c3c2)n1 [Example 20] |  |  |  |  |  |  | 50% | Inhibition activity on HBV-RT (%) (HBV polymerase; 0.01 μg/ml test compound): 12%; Inhibition activity on HBV-RT (%) (HBV polymerase; 0.1 μg/ml test compound): 40%; Inhibition activity on HBV-RT (%) (HBV polymerase; 1 μg/ml test compound): 67%; Inhibitory effect on the activities of HIV reverse transcriptase, Inhibition activity on HBV-RT (%) ([1]; 1 μg/ml test compound): 89%
